# Data taken from patent US4479941A, “Renin inhibitory peptides having PHE^13 delection” (Merck & Co., Inc., priority 1982, dated 1984).
# Square brackets hold non-standard residues; d marks the D form. Peptide text beside a SMILES is read from it. * marks the point of attachment. Sta = CC(C)C[C@H](N)[C@@H](O)CC(=O)O; X2 = c1ccc(CC(N*)c2ccccc2)cc1; NH(CH2)3Ph = c1ccc(CCCN*)cc1; NHPhenethyl = c1ccc(CCN*)cc1; X5 = c1ccc(CN2CCC(N*)CC2)cc1; Isobutyryl = CC(C)C(=O)*; Boc = CC(C)(C)OC(=O)*; NHBn = c1ccc(CN*)cc1; X3 = OCCN(CCO)CCCN*
# Legend:
# [1] = target: hog kidney renin (Sus scrofa, UniProt A0A287APG1); experiment: Hog renin inhibition; type: biochemical; conditions: pH 7.3, read-out: I50 (concentration of peptide inhibitor necessary to produce 50% inhibition of renin activity)
# Chain of hog kidney renin (A0A287APG1 67-407): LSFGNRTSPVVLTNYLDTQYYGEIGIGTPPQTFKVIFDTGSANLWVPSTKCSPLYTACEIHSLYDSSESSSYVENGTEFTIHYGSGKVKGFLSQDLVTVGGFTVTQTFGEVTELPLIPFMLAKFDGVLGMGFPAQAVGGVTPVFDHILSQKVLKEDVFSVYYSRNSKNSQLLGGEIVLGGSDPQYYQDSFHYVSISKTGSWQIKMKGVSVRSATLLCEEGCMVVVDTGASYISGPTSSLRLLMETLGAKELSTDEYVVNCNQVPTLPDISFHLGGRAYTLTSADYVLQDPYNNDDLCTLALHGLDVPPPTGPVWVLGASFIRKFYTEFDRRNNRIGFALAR
# Experimental: An assay was carried out in order to determine the inhibitory potency of the peptides of the present invention.
# [2] = target: T1, human kidney renin (Homo sapiens, UniProt P00797); experiment: Human renin inhibition; type: biochemical; conditions: purified human kidney renin; read-out: KI (dissociation constant of the inhibited enzyme-inhibitor complex)
# T1 construct: human kidney renin purified as described in Bangham; from tissue; host or cells: human kidney
# T1 sequence (P00797 67-406): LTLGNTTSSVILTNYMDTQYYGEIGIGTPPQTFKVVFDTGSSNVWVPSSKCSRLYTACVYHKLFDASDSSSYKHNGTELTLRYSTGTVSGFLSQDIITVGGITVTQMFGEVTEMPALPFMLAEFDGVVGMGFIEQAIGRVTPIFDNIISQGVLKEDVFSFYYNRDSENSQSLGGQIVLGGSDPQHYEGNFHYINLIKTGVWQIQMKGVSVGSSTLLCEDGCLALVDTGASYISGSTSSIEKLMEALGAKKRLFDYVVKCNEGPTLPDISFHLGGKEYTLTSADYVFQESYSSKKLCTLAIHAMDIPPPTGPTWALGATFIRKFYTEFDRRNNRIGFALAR
# Experimental: An assay was carried out in order to determine the inhibitory potency of the peptides of the present invention. The assay measured the inhibition of human kidney renin purified as described in Bangham, D. R., Robertson, I., Robinson, J. I. S., Robinson, C. J., and Tree, M., Clinical Science and Molecular Medicine, 48 (Supp. 2): 136s-159s (1975), and further purified by affinity chromatography on pepstatin-aminohexyl-Sepharase as described in Poe, M., Wu., J. K., Florance, J. R., Radkey, J. A., Bennett, C. D., and Hoagsteen, K., J. Biol. Chem. (1982, in press). The assay was also in accordance with Poe et al. cited above. Results are expressed as KI values, which refer to the dissociation constant of the inhibited enzyme-inhibitor complex. This KI value was obtained as described above.
# [3] = test system: hog renin; conditions: after injection of hog renin into nephrectomized rats (Gross et al. 1971); cited from earlier work
# [4] = test system: aspartyl proteases such as pepsin, cathepsin D, and renin; conditions: other acid proteases; cited from earlier work
Compound,IC50 [1],other results
"CC(C)C[C@H](NC(=O)C[C@H](O)[C@H](CC(C)C)NC(=O)[C@H](Cc1c[nH]cn1)NC(=O)[C@H](Cc1ccccc1)NC(=O)[C@@H]1CCCN1C(=O)[C@H](Cc1c[nH]cn1)NC(=O)C(C)C)C(=O)NCc1ccccc1 [N-Isobutyryl-L-histidyl-L-prolyl-L-phenylalanyl-L-histidyl-(3S,4S)-statyl-L-leucyl-benzylamide] (Isobutyryl-HPFH[Sta]L-NHBn)",13 nM,Ki [2]: 12 nM
pepstatin,,reduction of blood pressure in vivo [3]: reduce blood pressure in vivo; inhibition of aspartyl proteases (selectivity) [4]: inhibition of a variety of other acid proteases in addition to renin
CC(C)C[C@H](NC(=O)C[C@H](O)[C@H](CC(C)C)NC(=O)[C@H](Cc1c[nH]cn1)NC(=O)[C@H](Cc1ccccc1)NC(=O)[C@@H]1CCCN1C(=O)[C@H](Cc1c[nH]cn1)NC(=O)C(C)C)C(=O)NCCCc1ccccc1 [IBU--His-Pro-Phe-His-Sta-Leu-3-phenylpropylamide] (Isobutyryl-HPFH[Sta]L-{NH(CH2)3Ph}),19 nM,
"CC(C)C[C@H](NC(=O)C[C@H](O)[C@H](CC(C)C)NC(=O)[C@H](Cc1c[nH]cn1)NC(=O)[C@H](Cc1ccccc1)NC(=O)[C@@H]1CCCN1C(=O)[C@H](Cc1c[nH]cn1)NC(=O)C(C)C)C(=O)NC(Cc1ccccc1)c1ccccc1 (stereo partly drawn) [IBU--His-Pro-Phe-His-Sta-Leu-1,2-diphenylethylamide] (Isobutyryl-HPFH[Sta]L-X2)",5.6 nM,
CC(C)C[C@H](NC(=O)C[C@H](O)[C@H](CC(C)C)NC(=O)[C@H](Cc1c[nH]cn1)NC(=O)[C@H](Cc1ccccc1)NC(=O)OC(C)(C)C)C(=O)NC1CCN(Cc2ccccc2)CC1 [BOC--Phe-His-Sta-Leu-(4-amido-1-benzylpiperidine)] (Boc-FH[Sta]L-X5),,Ki [2]: 0.06 nM
CC(=O)N[C@@H](Cc1ccccc1)C(=O)N[C@@H](Cc1c[nH]cn1)C(=O)N[C@@H](Cc1ccccc1)[C@@H](O)CC(=O)N[C@@H](CC(C)C)C(=O)NCc1ccccc1 [Acetyl--Phe-His-AHPPA-Leu-benzylamide],3.4 nM,
CC(C)C[C@H](NC(=O)C[C@H](O)[C@H](CC(C)C)NC(=O)[C@H](Cc1c[nH]cn1)NC(=O)[C@H](Cc1ccccc1)NC(=O)[C@@H]1CCCN1C(=O)[C@H](Cc1c[nH]cn1)NC(=O)C(C)C)C(=O)NCCc1ccccc1 [IBU--His-Pro-Phe-His-Sta-Leu-2-phenylethylamide] (Isobutyryl-HPFH[Sta]L-NHPhenethyl),30 nM,
CC(C)C[C@H](NC(=O)C[C@H](O)[C@H](CC(C)C)NC(=O)[C@H](Cc1c[nH]cn1)NC(=O)[C@H](Cc1ccccc1)NC(=O)OC(C)(C)C)C(=O)NCCCN(CCO)CCO [BOC--Phe-His-Sta-Leu-[N-(3-amidopropyl)diethanolamine]] (Boc-FH[Sta]L-X3),,Ki [2]: 52 nM

# Second part, led by results:
IC50 [1],Compound,other results
1.4 nM,"CC(C)C[C@H](NC(=O)C[C@H](O)[C@H](Cc1ccccc1)NC(=O)[C@H](Cc1c[nH]cn1)NC(=O)[C@H](Cc1ccccc1)NC(=O)OC(C)(C)C)C(=O)NCc1ccccc1 [BOC--Phe--His--AHPPA--Leu--benzylamide, BOC--Phe-His-AHPPA^4 -Lleu-benzylamide]",
11 nM,"CC(C)C[C@H](NC(=O)C[C@H](O)[C@H](CC(C)C)NC(=O)[C@H](Cc1c[nH]cn1)NC(=O)[C@H](Cc1ccccc1)NC(=O)OC(C)(C)C)C(=O)NCc1ccccc1 [BOC--Phe--His--Sta--Leu--benzylamide, BOC--Phe-His-Sta-Leu-benzylamide] (Boc-FH[Sta]L-NHBn)",
36 nM,"CC(C)C[C@H](NC(=O)C[C@H](O)[C@H](CC(C)C)NC(=O)[C@H](Cc1c[nH]cn1)NC(=O)[C@H](Cc1ccccc1)NC(=O)OC(C)(C)C)C(=O)N[C@@H](CC(C)C)[C@@H](O)CC(=O)O [BOC--Phe--His--Sta--Leu--Sta, BOC--Phe-His-Sta-Leu-Sta] (Boc-FH[Sta]L[Sta]-OH)",
11 nM,"CC(C)C[C@H](NC(=O)C[C@H](O)[C@H](CC(C)C)NC(=O)[C@H](Cc1c[nH]cn1)NC(=O)[C@H](Cc1ccccc1)NC(=O)OC(C)(C)C)C(=O)NC(C)c1cccc2ccccc12 (single isomer, unassigned) [BOC--Phe-His-Sta-Leu-(+)-α-naphthylethylamide]",
